# Data published in US20160319239A1, “COMPOSITIONS AND METHODS FOR CULTURING CELLS FROM NORMAL HUMAN TUBO-OVARIAN EPITHELIUM AND HUMAN TUBO-OVARIAN TUMORS” (Whitehead Institute for Biomedical Research, priority 2011, published 2016).
# System: OCI ovarian tumor lines (P7a, P2a, C2p) and ATCC/ECACC ovarian tumor lines (ES2 and OV90)
# Assay: Alamar Blue viable cell assay with serial dilutions of paclitaxel or cisplatin, OCI vs ATCC/ECACC lines
# Format: cell-based, human
# Details: WIT-oc medium, 5000 cells/well, 72 hrs drug incubation
# Description: The next day serial dilutions of paclitaxel were added to the plate.
# The next day serial dilutions of cisplatin were added to the plate. […] There was a dramatic difference in the effect of the paclitaxel or cisplatin on OCI cell lines vs. ATCC/ECACC cell lines.
# Cisplatin is an example of a chemotherapeutic drug that causes DNA cross linking. Cisplatin binds to DNA and chemically crosslinks the two strands, which causes DNA damage during cell division. This elicits repair mechanisms, which in turn activate apoptosis when repair proves impossible. We plated the OCI ovarian tumor lines (P7a, P2a, C2p) and ATCC/ECACC ovarian tumor lines (ES2 and OV90) in WIT-oc medium (5000 cells/well) in plates in triplicate. The next day serial dilutions of cisplatin were added to the plate.
compound,measurement,value
N.N.[Cl][Pt][Cl] [cisplatin],"concentration that produced a 50% decrease in tumor cell numbers (LD90), fold higher in OCI lines compared to ATCC/ECACC lines",more than 6 fold
